Measurements taken from patent publication US20240294543A1, “CYCLOHEPTA-THIENO-DIAZEPINE DERIVATIVES AS GABA A GAMMA1 PAM” (Hoffmann-La Roche Inc., priority 2021, published 2024).
pKi: −log10 of the molar value. Like-named read-outs stand apart in the source and are kept apart here.

What was measured:
[1] = target: human GABAA α5β2γ1 receptor (Homo sapiens (Human), UniProt P31644+Q8N1C3); assay: Radioligand binding assay, competition for [3H]RO7239181, γ1-containing GABAA subtypes
Procedure: The affinity of compounds at GABAA γ1 subunit-containing receptors was measured by competition for [^3H]RO7239181 (67.3 Ci/mmol; Roche) binding to membranes from HEK293F cells (ThermoFisher R79007) expressing human (transiently transfected) receptors of composition α5β2γ1, α2β2γ1, α1β2γ1. For better protein expression of the α2 subunit-containing receptors, the 28 amino acid long signal peptide (Met1 to Ala28) of the human GABAA α2 subunit was substituted by the 31 amino acid long signal peptide (Met1 to Ser31) of human GABAA α5 subunit.
(§1) Harvested pellets from HEK293F cells expressing the different GABAA receptor subtypes were resuspended in Mannitol Buffer pH 7.2-7.4 (Mannitol 0.29 M, Triethylamine 10 mM, Acetic acid 10 mM, EDTA 1 mM plus protease inhibitors (20 tablets Complete, Roche Diagnostics Cat. No. 05 056 489 001 per liter)), washed two times and then resuspended at 1:10 to 1:15 dilution in the same buffer. Cell disruption was performed by stirring the suspension in a Parr vessel #4637 at 435 psi for 15 minutes, and then the suspensions were centrifuged at 1000×g for 15 minutes at 4° C. (Beckman Avanti J-HC; rotor JS-4.2). The supernatant (S1) was transferred in a 21 Schott flask and the pellet (P1) was resuspended with Mannitol Buffer up to 175 ml. The resuspended pellet was transferred into a 250 ml Corning centrifugal beaker and centrifuged at 1500×g for 10 minutes at 4° C. (Beckman Avanti J-HC; rotor JS-4.2). The supernatant (S1) was then transferred in the 21 Schott flask and the pellet was discarded. The supernatants (S1) were centrifuged in 500 ml Beckman polypropylene centrifugal beaker at 15'000×g for 30 minutes at 4° C. (Beckman Avanti J-20 XP; rotor JLA-10.500). The pellet (P2) was resuspended with Mannitol Buffer 1:1 and frozen at −80° C. The supernatant (S2) was centrifuged in 100 ml Beckman polypropylene centrifugal tubes at 48000×g for 50 minutes at 4° C. (Beckman Avanti J-20 XP; rotor JA-18). The supernatant (S3) was discarded and the pellet (P3) was resuspended with 1:1 Mannitol Buffer. The P2 and P3 protein concentration was determined with the BIORAD Standard assay method with bovine serum albumin as standard and measured on the NANO-Drop 1000. The membrane suspension was aliquots (500 μl per tube) and stored at −80° C. until required.
(§2) Membrane homogenates were resuspended and polytronised (Polytron PT1200E Kinematica AG) in Potassium Phosphate 10 mM, KCl 100 mM binding buffer at pH 7.4 to a final assay concentration determined with a previous experiment.
Radioligand binding assays were carried out in a volume of 200 μL (96-well plates) which contained 100 μL of cell membranes, [^3H]RO7239181 at a concentration of 1.5 nM (α5β2γ1) or 20-30 nM (α1β2γ1, α2β2γ1) and the test compound in the range of [0.3-10000]×10^−9 M. Nonspecific binding was defined by 10×10^−6 (α5β2γ1) and 30×10^−6 M RO7239181 and typically represented less than 5% (α5β2γ1) and less than 20% (α1β2γ1, α2β2γ1) of the total binding. Assays were incubated to equilibrium for 1 hour at 4° C. and then, membranes were filtered onto unifilter (96-well white microplate with bonded GF/C filters preincubated 20-50 minutes in 0.3% Polyethylenimine) with a Filtermate 196 harvester (Packard BioScience) and washed 4 times with cold Potassium Phosphate 10 mM pH 7.4, KCl 100 mM binding buffer. After anhydrousing, filter-retained radioactivity was detected by liquid scintillation counting. Ki values were calculated using Excel-Fit (Microsoft) and are the means of two determinations.

[2] = target: human GABAA α2β2γ1 receptor (Homo sapiens (Human), UniProt P47869+Q8N1C3); assay: as above
Procedure: The affinity of compounds at GABAA γ1 subunit-containing receptors was measured by competition for [^3H]RO7239181 (67.3 Ci/mmol; Roche) binding to membranes from HEK293F cells (ThermoFisher R79007) expressing human (transiently transfected) receptors of composition α5β2γ1, α2β2γ1, α1β2γ1.
as §1, §2
Assays were incubated to equilibrium for 1 hour at 4° C. and then, membranes were filtered onto unifilter (96-well white microplate with bonded GF/C filters preincubated 20-50 minutes in 0.3% Polyethylenimine) with a Filtermate 196 harvester (Packard BioScience) and washed 4 times with cold Potassium Phosphate 10 mM pH 7.4, KCl 100 mM binding buffer. After anhydrousing, filter-retained radioactivity was detected by liquid scintillation counting. Ki values were calculated using Excel-Fit (Microsoft) and are the means of two determinations.

[3] = target: human GABAA α1β3γ2 receptor (Homo sapiens (Human), UniProt P14867+P18507); assay: Radioligand binding assay, competition for [3H]Flumazenil, γ2-containing GABAA subtypes; conditions: for γ2/γ1 Selectivity Ratio: Ki α1β3γ2 (nM)/Ki α2β2γ1 (nM); for LogSel: Log[Ki α1β3γ2 (nM)/Ki α2β2γ1 (nM)]
Procedure: The affinity of compounds at GABAA γ2 subunit-containing receptors was measured by competition for [^3H]Flumazenil (81.1 Ci/mmol; Roche) binding to HEK293F cells expressing human (transiently transfected) receptors of composition α1β3γ2.
Harvested pellets from HEK293F cells expressing the different GABAA γ2 receptor subtypes were resuspended in Mannitol Buffer pH 7,2-7,4 and processed as described above for the cells expressing the GABAA γ1 subunit-containing receptors.
Assays were incubated to equilibrium for 1 hour at 4° C. and harvested onto GF/C uni-filters (Packard) by filtration using a Packard harvester and washing with ice-cold wash buffer (50 mM Tris; pH 7.5). After anhydrousing, filter-retained radioactivity was detected by liquid scintillation counting. Ki values were calculated using Excel-Fit (Microsoft) and are the means of two determinations.

[4] = target: h-GABA-A α2β2γ1 (Homo sapiens (Human), UniProt P47869+Q8N1C3); assay: Two-electrode voltage clamp electrophysiology in Xenopus oocytes expressing GABAA receptors; assay type: cell-based; conditions: α2β2γ1 GABAA receptor subtype expressing oocytes, reference PAMs
Procedure: Xenopus Oocytes Preparation Xenopus laevis oocytes at maturation stages V-VI were used for the expression of cloned mRNA encoding GABAA receptor subunits. Oocytes ready for RNA micro-injection were bought from Ecocyte, Castrop-Rauxel, Germany and stored in modified Barth's medium (composition in mM: NaCl 88, KCl 1, NaHCO3 2.4, HEPES 10, MgSO4 0.82, CaNO3 0.33, CaCl2 0.33, pH=7.5) at 20° C. until the experiment.
Oocytes were plated in 96-well plates for microinjection using the Roboinject automated instrument (MultiChannelSystems, Reutlingen, Germany). Approximately 50 nL of an aqueous solution containing the RNA transcripts for the subunits of the desired GABAA receptor subtype was injected into each oocyte. […] Oocytes were kept in modified Barth's medium (composition in mM: NaCl 88, KCl 1, NaHCO3 […], HEPES 10, MgSO4 0.82, CaNO3 0.33, CaCl2 0.33, pH=7.5) at 20° C. until the experiment.
Electrophysiological experiments were performed using the Roboocyte instrument (MultiChannelSystems, Reutlingen, Germany) on days 3 to 5 after the micro-injection of mRNA. During the experiment the oocytes were constantly superfused by a solution containing (in mM) NaCl 90, KCl 1, HEPES 5, MgCl2 1, CaCl2 1 (pH 7.4). Oocytes were impaled by two glass microelectrodes (resistance: 0.5-0.8 MQ) which were filled with a solution containing KCl 1M+K-acetate 1.5 M and voltage-clamped to −80 mV. The recordings were performed at room temperature using the Roboocyte two-electrode voltage clamp system (Multichannelsystem). After an initial equilibration period of 1.5 min GABA was added for 1.5 min at a concentration evoking approximately 20% of a maximal current response (EC20). After another rest interval of 2.5 min GABA was again added evoking a response of similar amplitude and shape. […] Current traces were recorded at a digitization rate of 10 Hz during and shortly before and after the GABA application.
Each compound and concentration was tested on at least 3 oocytes. Different oocytes were used for different compound concentrations.
For the analysis, the digitized current traces of the first and second GABA response were superimposed and, if necessary, rescaled to equal maximal amplitudes. The ratio between the two responses during the time interval of test compound application was calculated point by point. The extremum of the resulting “ratio trace” was taken as the efficacy (“Fold increase”) of the compound expressed as “% modulation of GABA EC20” (100*(Fold increase−1)).

[5] = Ki h-GABAA α2β2γ1, membranes of HEK293F cells, [3H]RO7239181 20-30 nM, Table 1
[6] = Ki h-GABAA α2β2γ1, membranes of HEK293F cells, [3H]RO7239181 20-30 nM, Table 2

SMILES	pKi [1]	pKi [2, 5]	pKi [2, 6]	pKi [3]	γ2/γ1 Selectivity Ratio ([3]; Table 1)	LogSel ([3]; Table 1)	LogSel ([3]; Table 3)	other results
Cc1nnc2n1-c1sc3c(c1C(c1c(F)cccc1F)=N[C@H]2C)CCCCC3F (single isomer, unassigned) [Example 10]	8.57	7.74	7.74	5.94	63.6	1.80		
Cc1nnc2n1-c1sc3c(c1C(c1c(F)cccc1F)=N[C@H]2C)COCC[C@@H]3F (single isomer, unassigned) [Example 55]	8.05	7.32	7.32	5.57	56.2	1.75		
Cc1nnc2n1-c1ccc(Cl)cc1C(c1ccccc1)=NC2 [Alprazolam, reference compound]							−2.3	
Clc1ccc2c(c1)C(c1ccccc1)=NCc1nncn1-2 [Estazolam, reference compound]							−2.0	γ2/γ1 Selectivity Ratio ([3]; Table 3): 0.0089
C[C@@H]1N=C(c2c(F)cccc2F)c2c(sc3c2CCCCC3)-n2c1n[nH]c2=O [Example 6, (7S)-9-(2,6-difluorophenyl)-7-methyl-18-thia-2,4,5,8-tetrazatetracyclo[8.8.0.02,6.011,17]octadeca-1(10),5,8,11(17)-tetraen-3-one]	8.43	7.43	7.43	5.61	65.3	1.82		
[2H]C1([2H])OCc2c(sc3c2C(c2c(F)cccc2F)=N[C@@H](C)c2nc(C(=O)N4CC(OCC)C4)nn2-3)OC1([2H])[2H] [Example 32, (3-Ethoxyazetidin-1-yl)-[(7S)-14,14,15,15-tetradeuterio-9-(2,6-difluorophenyl)-7-methyl-13,16-dioxa-18-thia-2,3,5,8-tetrazatetracyclo[8.8.0.02,6.011,17]octadeca-1(10),3,5,8,11(17)-pentaen-4-yl]methanone]	8.73	8.11	8.11		747.9	2.87		pKi ([3]; HEK293F cells, [3H]Flumazenil 1 nM, Table 1, read-out: Ki h-GABAA α1β3γ2): 5.24
Cc1nnc2n1-c1sc3c(c1C(c1c(F)cccc1F)=N[C@H]2C)COCC[C@H]3F [Example 54, (7S,16R)-9-(2,6-difluorophenyl)-16-fluoro-3,7-dimethyl-13-oxa-18-thia-2,4,5,8-tetrazatetracyclo[8.8.0.02,6.011,17]octadeca-1(10),3,5,8,11(17)-pentaene]	8.04	7.45	7.45	5.29	141.9			
Cc1cn2c(n1)[C@H](C)N=C(c1c(F)cccc1F)c1c-2sc2c1COCCC2 [Example 58, (7S)-9-(2,6-difluorophenyl)-4,7-dimethyl-13-oxa-18-thia-2,5,8-triazatetracyclo[8.8.0.02,6.011,17]octadeca-1(10),3,5,8,11(17)-pentaene]	8.59	7.60	7.60	5.85	56.0	1.75		
CN1C(=O)CN=C(c2ccccc2F)c2cc([N+](=O)[O-])ccc21 [Flunitrazepam, reference compound]								potentiation of the GABA-induced current [4]: ~60%
Cc1ncc2n1-c1ccc(Cl)cc1C(c1ccccc1F)=NC2 [Midazolam, reference compound]							−2.2	potentiation of the GABA-induced current [4]: ~60%
Cc1nnc2n1-c1sc3c(c1C(c1c(F)cccc1F)=N[C@H]2C)CCCC3 [RE-B, (7S)-9-(2,6-difluorophenyl)-3,7-dimethyl-17-thia-2,4,5,8-tetrazatetracyclo[8.7.0.02,6.011,16]heptadeca-1(10),3,5,8,11(16)-pentaene, reference compound]				7.67				pKi ([2]; Ki h-GABAA α2β2γ1, Table 3, reference compounds and examples): 7.24; γ2/γ1 Selectivity Ratio ([3]; Table 3): 2.68
Cc1nnc2n1-c1ccc(Cl)cc1C(c1ccccc1Cl)=NC2 [Triazolam, reference compound]							−1.5	potentiation of the GABA-induced current [4]: ~60%
